Here are results for 1 compound from article PMC4259467, “Molecular Cloning, Characterization and Positively Selected Sites of the Glutathione S-Transferase Family from Locusta migratoria” (PLoS ONE, 2014).

What all share (assay): spectrophotometric GST assay, steady state
Common to all, as to format: biochemical
What all share (details): co-substrate GSH; pH and temperature not given; read-out: K m ^CDNB

In one assay the target is T1, LmGSTO1 (Locusta migratoria, UniProt V9Q3Y6).
T1 construct: gene GSTo1; full-length ORF in pET28a, E. coli BL21(DE3), His-tag Ni-NTA purified
T1 sequence (V9Q3Y6 1-242): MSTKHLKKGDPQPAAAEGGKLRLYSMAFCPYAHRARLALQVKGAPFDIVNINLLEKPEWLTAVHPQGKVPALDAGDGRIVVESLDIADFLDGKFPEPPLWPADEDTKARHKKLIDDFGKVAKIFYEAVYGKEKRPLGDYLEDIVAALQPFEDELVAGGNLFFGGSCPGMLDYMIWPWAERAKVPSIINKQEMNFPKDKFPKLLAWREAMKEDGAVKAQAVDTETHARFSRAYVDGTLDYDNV
The text has this: spectrophotometric GST assay, steady state on LmGSTO1

The target of a further assay is T2, LmGSTT1 (Locusta migratoria, UniProt F4YUJ7).
T2 construct: full-length ORF in pET28a, E. coli BL21(DE3), His-tag Ni-NTA purified
T2 sequence (F4YUJ7 1-231): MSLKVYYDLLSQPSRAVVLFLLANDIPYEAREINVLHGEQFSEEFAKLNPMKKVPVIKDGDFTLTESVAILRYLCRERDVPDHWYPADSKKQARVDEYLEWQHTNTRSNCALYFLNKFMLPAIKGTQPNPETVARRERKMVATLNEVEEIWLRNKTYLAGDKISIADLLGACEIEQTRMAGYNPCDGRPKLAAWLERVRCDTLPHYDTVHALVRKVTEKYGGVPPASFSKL
The text has this:
spectrophotometric GST assay, steady state on LmGSTT1

Another assay addresses T3, LmGSTD1 (Locusta migratoria, UniProt E7BTM5).
T3 construct: full-length ORF in pET28a, E. coli BL21(DE3), His-tag Ni-NTA purified
T3 sequence (E7BTM5 1-218): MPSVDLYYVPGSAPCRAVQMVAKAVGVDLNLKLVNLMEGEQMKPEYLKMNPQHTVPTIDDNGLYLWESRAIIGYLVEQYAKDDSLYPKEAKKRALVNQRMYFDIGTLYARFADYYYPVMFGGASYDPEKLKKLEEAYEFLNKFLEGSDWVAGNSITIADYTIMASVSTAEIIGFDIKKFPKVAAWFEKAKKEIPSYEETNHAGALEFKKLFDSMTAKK
An excerpt:
spectrophotometric GST assay, steady state on LmGSTD1

The next assay deals with T4, LmGSTD2 (Locusta migratoria, UniProt V9Q3Y3).
T4 construct: gene GSTd2; full-length ORF in pET28a, E. coli BL21(DE3), His-tag Ni-NTA purified
T4 sequence (V9Q3Y3 1-214): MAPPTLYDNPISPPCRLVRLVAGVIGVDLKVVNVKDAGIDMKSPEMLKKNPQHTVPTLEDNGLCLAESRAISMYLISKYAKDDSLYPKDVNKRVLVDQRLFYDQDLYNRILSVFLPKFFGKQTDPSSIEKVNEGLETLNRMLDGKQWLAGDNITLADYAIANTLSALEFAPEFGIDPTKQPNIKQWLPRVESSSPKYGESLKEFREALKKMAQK
An excerpt:
spectrophotometric GST assay, steady state on LmGSTD2

In the next assay the target is T5, LmGSTD7 (Locusta migratoria, UniProt V9Q328).
T5 construct: gene GSTd7; full-length ORF in pET28a, E. coli BL21(DE3), His-tag Ni-NTA purified
T5 sequence (V9Q328 1-233): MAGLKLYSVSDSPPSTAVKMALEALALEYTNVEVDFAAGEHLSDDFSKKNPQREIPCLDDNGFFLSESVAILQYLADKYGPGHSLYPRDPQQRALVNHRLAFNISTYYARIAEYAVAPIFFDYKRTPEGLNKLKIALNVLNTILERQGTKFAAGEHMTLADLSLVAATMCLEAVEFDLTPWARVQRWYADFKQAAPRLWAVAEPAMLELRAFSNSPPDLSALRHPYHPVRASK
An excerpt: spectrophotometric GST assay, steady state on LmGSTD7

In another assay the target is T6, LmGSTT2 (Locusta migratoria, UniProt V9Q331).
T6 construct: gene GSTt2; full-length ORF in pET28a, E. coli BL21(DE3), His-tag Ni-NTA purified
T6 sequence (V9Q331 1-231): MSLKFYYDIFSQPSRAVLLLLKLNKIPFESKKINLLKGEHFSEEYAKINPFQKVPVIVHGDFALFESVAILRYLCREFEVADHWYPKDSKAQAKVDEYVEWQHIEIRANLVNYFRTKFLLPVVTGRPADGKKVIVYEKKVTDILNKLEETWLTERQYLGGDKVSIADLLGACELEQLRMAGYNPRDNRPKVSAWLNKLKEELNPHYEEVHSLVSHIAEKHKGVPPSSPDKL
An excerpt: spectrophotometric GST assay, steady state on LmGSTT2

The target of the next assay is T7, LmGSTS9 (Locusta migratoria, UniProt V9Q315).
T7 construct: gene GSTs9; full-length ORF in pET28a, E. coli BL21(DE3), His-tag Ni-NTA purified
T7 sequence (V9Q315 1-204): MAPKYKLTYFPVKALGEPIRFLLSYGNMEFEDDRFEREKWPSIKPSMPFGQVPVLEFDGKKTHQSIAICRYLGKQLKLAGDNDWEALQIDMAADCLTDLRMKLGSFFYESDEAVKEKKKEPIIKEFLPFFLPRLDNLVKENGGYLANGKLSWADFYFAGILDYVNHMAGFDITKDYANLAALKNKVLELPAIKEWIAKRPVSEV
An excerpt:
spectrophotometric GST assay, steady state on LmGSTS9

For the next assay, the target named is T8, LmGSTD4 (Locusta migratoria, UniProt V9Q2Q3).
T8 construct: gene GSTd4; full-length ORF in pET28a, E. coli BL21(DE3), His-tag Ni-NTA purified
T8 sequence (V9Q2Q3 1-218): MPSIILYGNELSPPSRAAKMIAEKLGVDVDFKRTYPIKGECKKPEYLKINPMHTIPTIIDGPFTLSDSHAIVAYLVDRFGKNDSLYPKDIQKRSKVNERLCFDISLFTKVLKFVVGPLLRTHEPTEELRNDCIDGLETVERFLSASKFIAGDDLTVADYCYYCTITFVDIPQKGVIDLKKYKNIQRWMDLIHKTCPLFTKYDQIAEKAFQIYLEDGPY
An excerpt:
spectrophotometric GST assay, steady state on LmGSTD4

The target in the next assay is T9, LmGSTO3 (Locusta migratoria, UniProt V9Q2Q7).
T9 construct: gene GSTo3; full-length ORF in pET28a, E. coli BL21(DE3), His-tag Ni-NTA purified
T9 sequence (V9Q2Q7 1-241): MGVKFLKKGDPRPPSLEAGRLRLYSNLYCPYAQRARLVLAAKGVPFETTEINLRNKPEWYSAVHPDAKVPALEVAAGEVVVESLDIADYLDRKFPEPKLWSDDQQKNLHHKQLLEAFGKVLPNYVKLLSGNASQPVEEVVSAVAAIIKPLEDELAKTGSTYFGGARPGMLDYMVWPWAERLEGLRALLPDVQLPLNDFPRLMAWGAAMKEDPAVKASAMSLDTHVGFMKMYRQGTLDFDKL
An excerpt: spectrophotometric GST assay, steady state on LmGSTO3

Each structure is given as a SMILES string.

On to `O=[N+]([O-])c1ccc(Cl)c([N+](=O)[O-])c1` [CDNB], for which the Km amounted to 228 ± 45 µM on LmGSTO1; 260 ± 14 µM on LmGSTT1; 139 ± 8 µM on LmGSTD1; 923 ± 49 µM at LmGSTD2; 492 ± 39 µM on LmGSTD7; 393 ± 49 µM on LmGSTT2. In addition, the Km at LmGSTS9 is 351 ± 26 µM; at LmGSTD4, 15 ± 2 µM; at LmGSTO3 it was 216 ± 4 µM.
